Results as given in patent US10722444B2, “Stable hydrogel compositions including additives” (Allergan Industrie, SAS, priority 2014, dated 2020).

Assays:
[1] = Long term stability / accelerated aging at 45° C. of HA-based gel with additive; format: physicochemical; details: for ΔpH / ΔTan δ (1 Hz): 0.6% (w/w) caffeic acid gel of Example 1 vs HA-based gel matrix without additives
Method: Long term stability of a hydrogel composition disclosed herein can be determined by subjecting a hydrogel composition to a heat treatment, such as, e.g., storage in an about 45° C. environment for about 60 days. Long term stability of a hydrogel composition disclosed herein can be evaluated 1) by assessing the clarity and color of a hydrogel composition after the 45° C. heat treatment, with a clear and uncolored hydrogel composition being indicative of a substantially stable hydrogel composition; 2) by determining the change in the extrusion force (ΔF) of a hydrogel composition disclosed herein after the 45° C. heat treatment, where the change in extrusion force less 2N is indicative of a substantially stable hydrogel composition as measured by (the extrusion force of a hydrogel composition with the specified additives before and after the 45° C. heat treatment) minus (the extrusion force of the a hydrogel composition without the specified additives before and after the 45° C. heat treatment); and 3) by determining the change in rheological properties of a hydrogel composition disclosed herein after sterilization, where the change in tan δ 1 Hz of less than 0.1 is indicative of a substantially stable hydrogel composition as measured by Δ Tan δ 1 Hz=(tan δ 1 Hz of gel formulation with the specified additives before and after the 45° C. heat treatment) minus (tan δ 1 Hz of gel formulation without the specified additives before and after the 45° C. heat treatment). As such, a long term stability of a hydrogel composition disclosed herein is evaluated by retention of one or more of the following characteristics after the 45° C. heat treatment: clarity (transparency and translucency), homogeneousness, and cohesiveness.
(§1) Reminder for stability assessment with extrusion force: ΔF (F gel with additive −F gel without additive)<2N
Reminder for stability assessment with rheology: ΔTan δ (Tan δ 1 Hz gel with additive −Tan δ 1 Hz gel without additive)<0.1 […]
The formulation prepared in Example 3 was subjected to accelerated aging or accelerated degradation in order to test the stability of the gel. […]

[2] = Autoclaving stability of HA-based gel with additive (pH, extrusion force, rheology, appearance); format: physicochemical; details: for ΔpH / ΔTan δ (1 Hz): gel with additive minus gel without
Method: Stability of a hydrogel composition disclosed herein can be determined by subjecting a hydrogel composition to a heat treatment, such as, e.g., steam sterilization at normal pressure or under pressure (e.g., autoclaving). Preferably the heat treatment is carried out at a temperature of at least about 100° C. for between about one minute and about 15 minutes. Substantial stability of a hydrogel composition disclosed herein can be evaluated 1) by determining the change in the extrusion force (ΔF) of a hydrogel composition disclosed herein after sterilization, where the change in extrusion force less 2N is indicative of a substantially stable hydrogel composition as measured by (the extrusion force of a hydrogel composition with the specified additives) minus (the extrusion force of the a hydrogel composition without the added additives); and/or 2) by determining the change in rheological properties of a hydrogel composition disclosed herein after sterilization, where the change in tan δ 1 Hz of less than 0.1 is indicative of a substantially stable hydrogel composition as measured by Δ Tan δ 1 Hz=(tan δ 1 Hz of gel formulation with additives) minus (tan δ 1 Hz of gel formulation without additives). As such, a substantially stable hydrogel composition disclosed herein retains one or more of the following characteristics after sterilization: homogeneousness, extrusion force, cohesiveness, hyaluronan concentration, agent(s) concentration, osmolarity, pH, or other rheological characteristics such as tan δ.
as §1
Reminder for stability assessment with rheology: ΔTan δ (Tan δ 1 Hz gel with additive −Tan δ 1 Hz gel without additive)<0.1
Caffeic acid, at a concentration of 0.6%,(w/w), was incorporated into a HA-based gel matrix at 24 mg/g containing 5% of uncrosslinked HA. The gel formulated was autoclaved.
Inoveol® CAFA (supplied by Libragen), (INCI name: Aqua (and) Caffeyl Glucoside), a derivative of caffeic acid, at a concentration of 0.5% (w/w) of commercial solution, was incorporated into a HA-based gel matrix containing a viscoelastic portion. The gel formulated was autoclaved.
The gel formulated was autoclaved.

[3] = after 30 days at 45° C., 0.6% (w/w) caffeic acid gel of Example 1
[4] = after autoclaving, 0.6% (w/w) caffeic acid in HA-based gel matrix at 24 mg/g containing 5% uncrosslinked HA
[5] = before autoclaving, 0.6% (w/w) caffeic acid in HA-based gel matrix at 24 mg/g containing 5% uncrosslinked HA

- ΔpH ([1]; 10 days at 45° C.): 1.05
- ΔTan δ (1 Hz) ([1]; 10 days at 45° C.): 0.0560
- ΔpH ([1]; 20 days at 45° C.): 0.90
- ΔTan δ (1 Hz) ([1]; 20 days at 45° C.): 0.077
- ΔpH ([1]; 30 days at 45° C.): 1.06
- ΔTan δ (1 Hz) ([1]; 30 days at 45° C.): 0.144
- colour of the gel [1, 3]: dark brown
- physical analysis of the gel, finding [1, 3]: degradation of the formulation
- appearance of the gel compared with before autoclaving [2, 4]: similar
- ΔpH [2, 4]: 0.55
- ΔTan δ (1 Hz) [2, 4]: 0.02
- appearance of the gel [2, 5]: clear and brown
- ΔpH [2, 5]: 0.18
- ΔTan δ (1 Hz) [2, 5]: −0.003
SMILES: O=C(O)/C=C/c1ccc(O)c(O)c1 [Caffeic acid]
- extrusion analysis finding ([2]; autoclaved gel with 0.6% (w/w) caffeic acid): beginning of degradation of the uncrosslinked hyaluronic acid
